According to ChEMBL document CHEMBL1158768, “Isolation and structure elucidation of the new fungal metabolite (-)-xylariamide A” (J Nat Prod, 2005):

Legend:
Format in all cases: organism-based
Settings in all cases: in vivo
Artemia salina [1] = assay: Toxicity in Artemia salina
Artemia salina [2] = assay: Toxicity in Artemia salina at 20 ug/mL
Artemia salina [3] = assay: Toxicity in Artemia salina at 200 ug/mL

Compound	Activity (Artemia salina [1])	Activity (Artemia salina [2])	Activity (Artemia salina [3])
COC(=O)/C=C/C(=O)N[C@@H](Cc1ccc(O)c(Cl)c1)C(=O)O [(+)-XYLARIAMIDE A]	Non-toxic		
COC(=O)/C=C/C(=O)N[C@H](Cc1ccc(O)c(Cl)c1)C(=O)O [(-)-XYLARIAMIDE A]		0%	71%
